Reference: US9932300B2, “N,N′-diarylurea compounds and N,N′-diarylthiourea compounds as inhibitors of translation initiation” (President and Fellows of Harvard College, priority 2009, dated 2018)
Entries after “also recorded” stand apart in the source; their conditions may differ. Peptide text beside a SMILES is read from it.

Key:
[1] = system: eIF2-GTP-Met-tRNAi ternary complex; experiment: Ternary complex activity (cell line not stated); assay type: cell-based
[2] = system: eIF2-GTP-Met-tRNAi ternary complex; experiment: Ternary complex assay (dual luciferase, firefly/renilla ratio) in stable KLN-tTA/pBISA-DL(ATF-4) cells; HTS and hit confirmation; assay type: cell-based, mouse; conditions: for Relative F-luc/R-luc Ratio (+/− SEM): anti-cancer agents at 20 μM, ternary complex assay; for Induction of F-luc/R-luc ratio after knockdown of HRI: siRNA against HRI
[3] = Solubility in solvents during purification; assay type: physicochemical; conditions: crude product
Procedure: Because it could not be purified, this compound was removed from the structure-activity relationship (SAR) study.
As another non-limiting example, 3,4-dichlorophenylisocyanate (250 mg, 1.330 mmol) and 2-amino-4-hydroxy-6-methylpyrimidine (166 mg, 1.330 mmol) were used following the general procedure E to synthesize 28.

[4] = system: eIF2-GTP-Met-tRNAi ternary complex; experiment: Ternary complex / ATF-4 dual luciferase assay in human cancer cell lines co-transfected with tTA and pBISA-DL(ATF-4) (CRL-2351, PC-3, CRL-2813); assay type: cell-based; conditions: CRL-2351 cell line
Procedure: FIGS. 8A-8D depict that N,N′-diarylureas reduce the availability of the eIF2-GTP-Met-tRNAi ternary complex in human cancer cells. A-C) PC-3, CR-L2351, and CRL-2813 human cancer cell lines were co-transfected with pBISA-DL^(ATF-4) and ptTA plasmids. One day post-transfection, the cells were treated with the indicated concentrations of N,N′-diarylureas. Firefly/renilla ratio was determined by DLR assay 8 hours after treatment. D) PC-3, CR-L2351, and CRL-2813 human cancer cell lines were treated with the indicated concentrations of N,N′-diarylureas four 8 hours, and expression of endogenous CHOP mRNA was determined by real-time PCR.
(§1) For example, reducing amount of the ternary complex increases translation of ATF-4, which results in elevated expression of CHOP mRNA and protein. Therefore, expression of endogenous CHOP mRNA and CHOP protein in KLN-tTA/pBISA-DL^(ATF-4) cells were utilized as secondary assays to validate N,N′-diarylurea compounds as modifiers of the eIF2⋅GTP⋅Met-tRNAi ternary complex. […] To rule out the possibility that the activity of N,N′-diarylurea compounds was confined to a single cell type, the effects of these compounds on the ternary complex assay and the expression of CHOP mRNA was assayed in CRL-2351, PC-3, CRL-2813 human breast, prostate, and melanoma cancer cell lines respectively. For the reporter gene assay, the three human cell lines were co-transfected with tTA expression vector and the pBISA-DL^(ATF-4) dual luciferase expression vector shown in FIG. 6. […] The expression of CHOP mRNA was assayed by real time PCR in the same cell lines treated with 5 or 20 μM of each compound. […]
Stable and transient transfection: Cells were seeded at the density of 10^5 in 60-mm (stable transfection) or 10^4 cells per well of 96-well plate (transient transfection) plates and transfected one day later using the Qiagen Transfectamine transfection kit. For selection of stable cell lines, transfected cells were transferred to 100-mm plates and selected with appropriate antibiotics.
Dual luciferase assay: Cells or minced tumors expressing firefly and renilla luciferases were lysed and the extracts assayed with a glow type dual luciferase assay kit, per manufacturer's instruction (Promega Inc., Madison, Wis.).

[5] = system: eIF2-GTP-Met-tRNAi ternary complex; experiment: Ternary complex assay (dual luciferase, firefly/renilla ratio) in stable KLN-tTA/pBISA-DL(ATF-4) cells; HTS and hit confirmation; assay type: cell-based, mouse
[6] = system: PC-3 human prostate cancer cells; experiment: Cell proliferation, SRB assay, PC-3; assay type: cell-based; conditions: read-out: IC50 (concentration that inhibits cell proliferation by 50%)
Procedure: Reduced availability of the ternary complex causes inhibition of translation initiation and thereby of cell proliferation. […] The effects of N,N′-diarlyureas on the proliferation KLN mouse squamous cell carcinoma, CRL-2351 human breast, CRL-2813 human melanoma, A549 human lung and PC-3 human prostate cancer cell lines were tested.
To determine if N,N′-diarylureas inhibit cell proliferation by reducing the availability of the ternary complex, the effect of N,N′-diarylureas on proliferation of previously described transgenic PC-3 human prostate cancer cell lines expressing either the non-phosphorylatable eIF2α-S51A mutant or the eIF2α-WT was studied. […] Reducing the expression of HRI, the eIF2α kinase that mediates N,N′-diarlyurea induced phosphorylation of eIF2α similarly abrogates the effect of these agents on cell proliferation (FIGS. 15C and 15D).
Cell Growth Assay: Cell growth was measured by the SRB assay.

[7] = In vivo toxicity in female nude mice (body weight, food consumption, necropsy)
Procedure: Five female nude mice each were treated with 200 mg/kg, 100 mg/kg #1781 in 15 μl DMSO or 15 μl DMSO daily for seven days. Mice were observed daily for signs of toxicity and weighed every other day for total of 15 days and then necropsy was performed. The average body of each group is plotted against the time.
To study toxicity effects, mice were treated with various doses of compound #1781 or vehicle.

CHOP = experiment: Expression of endogenous CHOP mRNA (real time PCR) and CHOP protein (Western blot); assay type: cell-based, mouse and human; conditions: siRNA against HRI
Text: as §1
Real time PCR: For real time PCR, total RNA was extracted with TaqMan Gene Expression Cells-to-Ct™ Kit (Applied Biosystems, Branchburg, N.J.) according to manufacturer's protocol. […] To calibrate the results, all the transcripts quantities were normalized to 18S rRNA (was 18S ribosomal RNA-like mRNA in mouse). […]

HRI = experiment: Activation of HRI in cell-free lysates (phosphorylation of eIF2α, Western blot); assay type: biochemical, rabbit and human; conditions: lysates of CRL-2813 cells or heme-supplemented rabbit reticulocytes, 30 minutes at 37° C.
Procedure: FIGS. 14A and 14B depict that N,N′-diarylurea compounds activate HRI in cell free lysates. A and B) Heme supplemented rabbit reticulocyte (a) or in-house prepared human melanoma cancer cell lysates (b) were incubated with the indicated concentration of compound 1781 for 30 minutes at 37° C. and phosphorylation of eIF2α was determined by Western blot analysis.
Compound #1781 was added to lysates of CRL-2813 cells or heme-supplemented rabbit reticulocytes and phosphorylation of eIF2α by Western blot was determined.

CN(C(=O)Nc1cc(C(F)(F)F)cc(C(F)(F)F)c1)c1cc(C(F)(F)F)cc(C(F)(F)F)c1
Maximum effect (Emax, fold over control) [1]: 13 fold over control
Maximum effective dose Cmax [1]: 10 µM

COc1cc(N(C)C(=O)Nc2cc(C(F)(F)F)cc(C(F)(F)F)c2)ccc1C
Maximum effect (Emax, fold over control) [1]: Inactive

Cc1ccc(N(C)C(=O)Nc2cc(C(F)(F)F)cc(C(F)(F)F)c2)cc1O
Maximum effect (Emax, fold over control) [1]: 8.5 fold over control
Maximum effective dose Cmax [1]: 80 µM

CC[C@@]1(O)C(=O)OCc2c1cc1n(c2=O)Cc2cc3ccccc3nc2-1 [Camptothecin]
Relative F-luc/R-luc Ratio (+/− SEM) [2]: 1.3 + 0.3

COc1cc2c(c(OC)c1OC)-c1ccc(OC)c(=O)cc1[C@@H](NC(C)=O)CC2 [Colchicine]
Relative F-luc/R-luc Ratio (+/− SEM) [2]: 1.2 + 0.3

CC(C)Cn1c(=O)n(C)c(=O)c2[nH]cnc21 [Compound 3-isobutyl-1-methylxanthine]
Relative F-luc/R-luc Ratio (+/− SEM) [2]: 1.1 + 0.2

O=c1[nH]cc(F)c(=O)[nH]1 [Compound 5-fluorouracil, 5-fluorouracil]
Relative F-luc/R-luc Ratio (+/− SEM) [2]: 1 + 0.2

O=C(Nc1cc(C(F)(F)F)cc(C(F)(F)F)c1)Nc1ncccc1O [Compound 28]
Solubility in solvents [3]: not soluble in any solvent; also recorded: wasn't soluble in any solvent tested
ATF-4 Cmax (concentration corresponding to the maximal activity) [4]: 40 µM

O=C(Nc1ccc(Cl)c(Cl)c1)Nc1cc([N+](=O)[O-])ccc1Cl [Compound 1527]
Active or inactive N,N′-diarylurea (ternary complex assay) ([5]; designation in figure legend): inactive
IC50 [6]: 8.3 µM

O=C(Nc1ccc(Cl)c(Cl)c1)Nc1ccc2nnsc2c1 [Compound 1781]
Apparent in vivo toxicity ([7]; 200 mg/kg or 100 mg/kg daily for seven days, female nude mice, observed 15 days): no apparent in vivo toxicity
Effect on weight gain or food consumption ([7]; seven consecutive day administration, up to 200 mg/kg, mice): no adverse effect on weight gain or food consumption
Induction of F-luc/R-luc ratio after knockdown of HRI [2]: significantly abrogated
Induction of F-luc/R-luc ratio after knockdown of HRI ([2]; listed as 1181): almost completely abrogated
Induction of F-luc/R-luc ratio after knockdown of PKR, PERK or GCN2 ([2]; siRNA against PKR, PERK, GCN2, individually or combined): no effect
Induction of CHOP mRNA after knockdown of HRI (CHOP): abrogated induction of CHOP mRNA
Phosphorylation of eIF2α in cell lysates (HRI): caused phosphorylation of eIF2α in cell lysates in a dose dependent manner

COc1ccc([C@@H]2Sc3ccccc3N(CCN(C)C)C(=O)[C@@H]2OC(C)=O)cc1 [Dilthiazem]
Relative F-luc/R-luc Ratio (+/− SEM) [2]: 1.4 + 0.4

CC(=O)O.NCC(=O)N[C@@H](Cc1c[nH]cn1)C(=O)O [Glycyl-1-histidyl acetate] (H-Gly-His-OH)
Relative F-luc/R-luc Ratio (+/− SEM) [2]: 1 + 0.1

CO[C@@]12[C@H](COC(N)=O)C3=C(C(=O)C(C)=C(N)C3=O)N1C[C@@H]1N[C@@H]12 [Mitomycin C]
Relative F-luc/R-luc Ratio (+/− SEM) [2]: 0.9 + 0.3

C=C1[C@@H](O)[C@@H]2O[C@]3(CC[C@H](/C=C/[C@@H](C)[C@@H]4CC(C)=C[C@@]5(O[C@H](C[C@@](C)(O)C(=O)O)CC[C@H]5O)O4)O3)CC[C@H]2O[C@@H]1[C@@H](O)C[C@H](C)[C@H]1O[C@@]2(CCCCO2)CC[C@H]1C [Okadaic acid]
Relative F-luc/R-luc Ratio (+/− SEM) [2]: 1 + 0.3

CCCCCCCCCC(=O)NC(CN1CCOCC1)C(O)c1ccccc1 (stereo not drawn) [Threo-1-phenyl]
Relative F-luc/R-luc Ratio (+/− SEM) [2]: 1.5 + 0.4

COc1cc([C@@H]2c3cc4c(cc3[C@@H](O[C@@H]3O[C@@H]5CO[C@@H](C)O[C@H]5[C@H](O)[C@H]3O)[C@H]3COC(=O)[C@H]23)OCO4)cc(OC)c1O [etoposite, reference compound]
Effect on firefly/renilla luciferase ratio ([5]; KLN-tTA/pBISA-DL(ATF-4) colonies, assay validation): no effect
Relative F-luc/R-luc Ratio (+/− SEM) [2]: 1 + 0.2
